Assay results: patent publication US20110166109A1, “Synergistic Active Compound Combinations Comprising Phenyltriazoles” (Bayer CropScience AG, priority 2009, published 2011)
Like-named read-outs stand apart in the source and are kept apart here.

How the values were obtained:
Type in all cases: in vivo
[1] = system: Tetranychus urticae; test: Tetranychus test (OP-resistant/spray treatment), bean leaf discs
Method: (§1) To produce a suitable preparation of active compound, 1 part by weight of active compound is mixed with the stated amounts of solvent and emulsifier, and the concentrate is diluted with emulsifier-containing water to the desired concentration.
Discs of bean leaves (Phaseolus vulgaris) which are infested by all stages of the greenhouse red spidermite (Tetranychus urticae) are sprayed with an active compound preparation of the desired concentration.
After the desired period of time, the effect in % is determined. 100% means that all spider mites have been killed; 0% means that none of the spider mites have been killed.

[2] = system: Phaedon cochleariae; test: Phaedon cochleariae larvae test (treated cabbage leaves); conditions: applied individually; for pest or weed control at 500 g/ha / pest or weed control at 100 g/ha / pest or weed control at 200 g/ha: Phaedon cochleariae, 144 h, after 6 d, read-out: Kill in % after 6d
[3] = system: Myzus persicae; test: Myzus persicae test (spray treatment of infested cabbage leaves); conditions: applied individually
Method: as §1
Cabbage leaves (Brassica oleracea) which are heavily infested by the green peach aphid (Myzus persicae) are treated by spraying with the active compound preparation of the desired concentration.
After the desired period of time, the kill in % is determined. 100% means that all of the aphids have been destroyed; 0% means that none of the aphids have been destroyed. The kill rates determined are entered into Colby's formula.

[4] = system: Spodoptera frugiperda; test: Spodoptera frugiperda larvae test (sprayed cabbage leaves); conditions: applied individually
Method: as §1
Cabbage leaves (Brassica okracea) are treated by being sprayed with the preparation of active compound of the desired concentration and are populated with larvae of the armyworm (Spodoptera frugiperda) while the leaves are still moist.
After the desired period of time, the kill in % is determined. 100% means that all caterpillars have been killed; 0% means that none of the caterpillars have been killed. The kill rates determined are entered into Colby's formula.

[5] = Tetranychus urticae, foliar, 144 h, 500 g/ha, after 6 d, applied individually, read-out: Kill in % after 6d
[6] = Tetranychus urticae, foliar, 144 h, read-out: Kill in % after 6d

Cc1nn(C)c(F)c1C(=O)Nc1ccccc1C(C)CC(C)C (centres unmarked) [(6-18), N-[2-(1,3-dimethylbutyl)phenyl]-5-fluoro-1,3-dimethyl-1H-pyrazole-4-carboxamide]
Kill in % after 1d ([1]; 500 g/ha, applied individually): 0%
pest or weed control at 500 g/ha [1, 5]: 0%
pest or weed control at 500 g/ha ([2]; 500 g/ha): 0%

Cc1cc(C)c([S+]([O-])CC(F)(F)F)cc1-n1cnc(C(F)(F)F)n1 (centres unmarked) [(I-1)]
Kill in % after 1d ([1]; 0.16 g/ha, applied individually): 0%
pest or weed control at 0.16 g/ha ([1]; Tetranychus urticae, foliar, 144 h, 0.16 g/ha, after 6 d, applied individually, read-out: Kill in % after 6d): 0%
pest or weed control at 0.8 g/ha ([1]; Tetranychus urticae, foliar, 144 h, 0.8 g/ha, after 6 d, applied individually, read-out: Kill in % after 6d): 60%
Kill in % after 6d ([3]; 20 g/ha): 0%
pest or weed control at 100 g/ha [2]: 0%

CO/C=C(/C(=O)OC)c1ccccc1Oc1cc(Oc2ccccc2C#N)ncn1 [azoxystrobin]
pest or weed control at 500 g/ha ([2]; 500 g/ha): 17%

CC(C)(C)C(O)C(Oc1ccc(-c2ccccc2)cc1)n1cncn1 (centres unmarked) [bitertanol]
pest or weed control at 500 g/ha ([2]; 500 g/ha): 0%

Cn1cc(C(=O)Nc2ccc(F)cc2-c2ccc(Cl)c(Cl)c2)c(C(F)F)n1 [bixafen, N-(3′,4′-dichloro-5-fluoro[1,1′-biphenyl]-2-yl)-3-(difluoromethyl)-1-methyl-1H-pyrazole-4-carboxamide]
Kill in % after 1d ([1]; 200 g/ha, applied individually): 0%
pest or weed control at 500 g/ha ([2]; 500 g/ha): 0%

COC(=O)Nc1nc2ccccc2[nH]1 [carbendazim]
Kill in % after 6d ([3]; 500 g/ha): 20%

CCC1(C(=O)NC(C)c2ccc(Cl)cc2)C(C)C1(Cl)Cl (centres unmarked) [carpropamid]
pest or weed control at 500 g/ha ([2]; 500 g/ha): 0%
Kill in % after 6d ([4]; 500 g/ha): 0%

Cc1cc(F)c(-n2nc(C(F)(F)F)nc2N)cc1[S+]([O-])CC(F)(F)F (centres unmarked) [compound (I-4)]
pest or weed control at 4 g/ha ([1]; Tetranychus urticae, foliar, 144 h, 4 g/ha, after 6 d, applied individually, read-out: Kill in % after 6d): 70%
pest or weed control at 20 g/ha ([1]; Tetranychus urticae, foliar, 144 h, 20 g/ha, after 6 d, applied individually, read-out: Kill in % after 6d): 80%
Kill in % after 1d ([3]; 100 g/ha): 0%
pest or weed control at 100 g/ha [2]: 0%
Kill in % after 6d ([4]; 100 g/ha): 0%

CSC1=N[C@@](C)(c2ccccc2)C(=O)N1Nc1ccccc1 [fenamidone]
pest or weed control at 500 g/ha [1, 6]: 0%
pest or weed control at 500 g/ha ([2]; 500 g/ha): 0%
Kill in % after 6d ([4]; 500 g/ha): 0%

N#Cc1c[nH]cc1-c1cccc2c1OC(F)(F)O2 [fludioxonil]
pest or weed control at 200 g/ha [1, 6]: 0%
pest or weed control at 200 g/ha [2]: 33%

O=C(NCc1ncc(C(F)(F)F)cc1Cl)c1c(Cl)cccc1Cl [fluopicolide, fluopicolid]
pest or weed control at 500 g/ha [1, 5]: 0%
Kill in % after 6d ([2]; 500 g/ha): 0%
pest or weed control at 500 g/ha ([2]; 500 g/ha): 0%

O=C(NCCc1ncc(C(F)(F)F)cc1Cl)c1ccccc1C(F)(F)F [fluopyram, N-[2-[3-chloro-5-(trifluoromethyl)-2-pyridinyl]ethyl]-2-(trifluoromethyl)benzamide]
pest or weed control at 500 g/ha [1, 6]: 0%
pest or weed control at 500 g/ha ([2]; 500 g/ha): 0%
Kill in % after 6d ([4]; 500 g/ha): 0%

CO/N=C(/C1=NOCCO1)c1ccccc1Oc1ncnc(Oc2ccccc2Cl)c1F [fluoxastrobin]
pest or weed control at 500 g/ha [1, 6]: 0%
pest or weed control at 500 g/ha ([2]; 500 g/ha): 33%

O=c1c2cc(F)ccc2nc(-n2cncn2)n1-c1ccc(Cl)cc1Cl [fluquincoazole, fluquinconazole]
pest or weed control at 500 g/ha [1, 6]: 0%
pest or weed control at 500 g/ha ([2]; 500 g/ha): 17%

CC(C)C1CCC(Cc2ccc(Cl)cc2)C1(O)Cn1cncn1 (centres unmarked) [ipconazole]
pest or weed control at 500 g/ha ([2]; 500 g/ha): 0%

N#Cc1ccccc1NC(=O)c1snc(Cl)c1Cl [isotianil]
pest or weed control at 500 g/ha ([2]; 500 g/ha): 0%

COCC(=O)N(c1c(C)cccc1C)C(C)C(=O)OC (centres unmarked) [metalaxyl]
Kill in % after 1d ([1]; 500 g/ha, applied individually): 0%
pest or weed control at 500 g/ha [1, 6]: 0%

CNC(=O)/C(=N/OC)c1ccccc1Oc1ccccc1 [metominostrobin]
pest or weed control at 500 g/ha [1, 6]: 0%

O=C(Nc1ccccc1)N(Cc1ccc(Cl)cc1)C1CCCC1 [pencycuron]
pest or weed control at 500 g/ha ([2]; 500 g/ha): 0%

CCCOC(=O)NCCCN(C)C [propamocarb]
Kill in % after 1d ([1]; 500 g/ha, applied individually): 0%
pest or weed control at 500 g/ha [1, 5]: 0%
pest or weed control at 200 g/ha [2]: 17%

OC(Cc1ccccc1Cl)(Cn1ncnc1S)C1(Cl)CC1 (centres unmarked) [prothioconazole]
pest or weed control at 200 g/ha [1, 6]: 0%
pest or weed control at 500 g/ha ([2]; 500 g/ha): 0%
Kill in % after 6d ([4]; 500 g/ha): 0%

CCCN(CC)CC1COC2(CCC(C(C)(C)C)CC2)O1 (centres unmarked) [spiroxamine]
pest or weed control at 200 g/ha [1, 6]: 0%

CC(C)(C)C(O)(CCc1ccc(Cl)cc1)Cn1cncn1 (centres unmarked) [tebuconazole]
pest or weed control at 200 g/ha [1, 6]: 0%
pest or weed control at 500 g/ha ([2]; 500 g/ha): 0%
Kill in % after 6d ([4]; 500 g/ha): 0%

Cc1ccc(N(SC(F)(Cl)Cl)S(=O)(=O)N(C)C)cc1 [tolyfluanid, tolylfluanid]
pest or weed control at 500 g/ha ([2]; 500 g/ha): 0%

CC(C)(C)C(O)C(Oc1ccc(Cl)cc1)n1cncn1 (centres unmarked) [triadimenol]
pest or weed control at 200 g/ha [1, 6]: 0%
pest or weed control at 500 g/ha ([2]; 500 g/ha): 0%
Kill in % after 6d ([4]; 500 g/ha): 0%

CO/N=C(/C(=O)OC)c1ccccc1CO/N=C(\C)c1cccc(C(F)(F)F)c1 [trifloxystrobin]
pest or weed control at 500 g/ha [1, 6]: 0%
Kill in % after 1d ([3]; 500 g/ha): 70%
pest or weed control at 200 g/ha [2]: 17%
pest or weed control at 500 g/ha ([2]; 500 g/ha): 0%
